In brackets after ≈: the same amount, converted by molar mass. Where two headings read alike, the source gives them in different places.
How the values were obtained:
[1] = tested on: immature-stage gametocytes (PfiGc), NF54-PfS16-GFP-Luc; test: Antigametocytic luciferase reporter assay, immature/early stage; conditions: Plasmodium falciparum; for inhibition at 1 µM / inhibition at 5 µM: NF54, 48 h; for inhibition at 1 µM: read-out: Early gametocytes (EG) % activity, 1.0 µM; for inhibition at 5 µM: read-out: Early gametocytes (EG) % activity, 5.0 µM
[2] = tested on: late-stage gametocytes (PfLGc), NF54-PfS16-GFP-Luc; test: Antigametocytic luciferase reporter assay, late stage; conditions: Plasmodium falciparum; for inhibition at 1 µM / inhibition at 5 µM: NF54, 48 h; for inhibition at 1 µM: read-out: Late gametocytes (LG) % activity, 1.0 µM; for inhibition at 5 µM: read-out: Late gametocytes (LG) % activity, 5.0 µM
Description: (§1) In vitro Antigametocytic Activity Assay. Gametocytes were produced as per the method reported by Reader and co-workers.3 The luciferase reporter assay was used to enable accurate, reliable and quantifiable investigations of the stage-specific action of gametocytocidal compounds for the early and late gametocyte marker cell line NF54-PfS16-GFP-Luc.
(§2) (representing >90% of either early stage II/III or mature/late stage IV/V gametocytes, respectively). […]
(§3) h drug pressure in a gas chamber (90% N 2, 5% O 2, and 5% CO 2) at 37 °C. Luciferase activity was determined in 30 µl parasite lysates by adding 30 µl luciferin substrate (Promega Luciferase Assay System) at room temperature and detection of resultant bioluminescence at an integration constant of 10s with the GloMax® Explorer Detection System with Instinct® Software. […]
(§4) µM) and internal project specific controls were included as controls. The dual point screens were performed as technical triplicates for a single biological assay.

[3] = tested on: late-stages (IV – V) gametocytes; test: microbe, parasite or virus in culture; conditions: Plasmodium falciparum
Description: as §1, §2, §3, §4

P. berghei = conditions: in vivo, po
Description: In vivo Antiplasmodium Assay (Swiss TPH).
described,5 with the modification that mice (n = 3) were infected with a GFP -transfected P. berghei
ANKA strain (donated by A. P. Waters and C. J. Janse, Leiden University, The Netherlands), and
parasitemia was determined using standard flow cytometry techniques. The detection limit was 1
parasite in 1000 erythrocytes (that is, 0.1%). The activity was calculated as the difference between
the mean percent parasitemia for the control and treated groups expressed as a percent relative to the
control group. Compounds were dissolved or suspended in a vehicle consisting of 70% Tween -80
and 30% ethanol, followed by a 10 -fold dilution in H 2O and oral administration as four consecutive
Blood samples for the quadruple -dose regimens
The survival time in days was also recorded up to 30
days after infection. A compound was considered curative if the animal survived to day 30 after
infection with no detectable parasites by slide reading .

[4] = Turbidimetric kinetic aqueous solubility; type: physicochemical; conditions: turbidimetric method, PBS pH 7.4, read-out: Sol. (solubility)
Description: Aqueous Solubility. Solubility was measured from amorphous solid forms of the compounds using the turbidimetric method. Following the dissolution of test compound in DMSO to make a 10 mM stock solution, a pre-dilution plate was prepared by taking from each stock solution and serially […]
pre-dilution solution, secondary dilutions of the compounds in both DMSO and 0.01M pH 7.4 PBS were prepared in triplicate on a second 96-well plate. Wells in columns 1-6 would contain […]
(§5) nominal concentrations as those in DMSO. The final volume of solvent in each assay plate was 200 µl, prepared by pipetting 4 µl each of solution from the pre-dilution plate to the corresponding well into both DMSO and PBS (both 196 µL). This ensures that the final concentration of DMSO in the […]
(§6) Similarly, a second secondary plate containing
(§7) Different concentrations in DMSO were prepared as controls to determine false turbidimetric absorbance readings arising from the compounds in solution absorbing incident radiation at the test wavelength. Following preparation, the assay plate was covered and left to equilibrate for 2 h at 25 °C. Afterwards, UV-vis absorbance readings from the plate were measured at 620 nm using a SpectraMax 340PC384 microplate reader. Plots of corrected absorbance against compound concentration were computed for a graphical representation of the data using MS Excel. Reserpine and hydrocortisone were used as positive and negative controls, respectively.
(§8) In vitro Antiplasmodium Assay. The compounds were tested using the modified [3H]-hypoxanthine incorporation assay, as previously reported.1
(§9) In vitro Cytotoxicity Assay. Compounds were screened against Chinese Hamster Ovarian (CHO) mammalian cell lines, using the 3-(4,5-dimethylthiazol-2-yl)-2,5-diphenyltetrazoliumbromide […]
It was prepared to 2 mg/ml in distilled water, while the stock solutions of test compounds were prepared to 20 mg/ml in DMSO (100%), […]
lowest being 0.001 µg/ml. […]
of cell suspension in each well and developed afterward by adding 25 µl of sterile MTT (Thermo

hERG K+ channel = target: T1, hERG K+ channel (Homo sapiens, UniProt Q12809); test: QPatch hERG assay; type: cell-based; conditions: CHO K1 cells stably expressing hERG
T1 construct: host or cells: CHO K1 (ATCC), stably expressing hERG
Description: In vitro Liver-stage Assay (P. berghei-sporozoite Infection). In a 24-well plate, HepG2 was seeded
employed as reference drugs. Negative control wells received medium only.
cells were trypsinized and the percentage (%) of infected cells was determined by flow cytometry
(BD LSRFortessa) using at least 10000 events. For determining host cell viability, in a 96-well plate,
h of incubation, a volume 100 µl of medium containing drugs was added and further incubated at 37
°C. Negative control wells received medium only and positive wells received gentian violet. After
Drugs were tested in five different concentrations, each one in

[5] = tested on: drug sensitive (NF54) strain of Pf; test: In vitro antiplasmodium assay, [3H]-hypoxanthine incorporation, NF54; type: cell-based, Plasmodium falciparum; conditions: for IC50: mean n ≥ 2
Description: All target compounds were evaluated for their antiplasmodium activity against the drug sensitive (NF54) strain of Pf and for turbidimetric kinetic solubility.
Aqueous Solubility. Solubility was measured from amorphous solid forms of the compounds using the turbidimetric method. Following the dissolution of test compound in DMSO to make a 10 mM stock solution, a pre-dilution plate was prepared by taking from each stock solution and serially diluting in triplicate to yield concentrations from 0.25 mM to 10.0 mM on a 96 well plate. From each pre-dilution solution, secondary dilutions of the compounds in both DMSO and 0.01M pH 7.4 PBS were prepared in triplicate on a second 96-well plate. Wells in columns 1-6 would contain […]
as §5, §6, §7, §8, §9

[6] = tested on: PfK1 multidrug resistant strain; test: microbe, parasite or virus in culture; type: cell-based, Plasmodium falciparum

T1 sequence (Q12809 whole entry): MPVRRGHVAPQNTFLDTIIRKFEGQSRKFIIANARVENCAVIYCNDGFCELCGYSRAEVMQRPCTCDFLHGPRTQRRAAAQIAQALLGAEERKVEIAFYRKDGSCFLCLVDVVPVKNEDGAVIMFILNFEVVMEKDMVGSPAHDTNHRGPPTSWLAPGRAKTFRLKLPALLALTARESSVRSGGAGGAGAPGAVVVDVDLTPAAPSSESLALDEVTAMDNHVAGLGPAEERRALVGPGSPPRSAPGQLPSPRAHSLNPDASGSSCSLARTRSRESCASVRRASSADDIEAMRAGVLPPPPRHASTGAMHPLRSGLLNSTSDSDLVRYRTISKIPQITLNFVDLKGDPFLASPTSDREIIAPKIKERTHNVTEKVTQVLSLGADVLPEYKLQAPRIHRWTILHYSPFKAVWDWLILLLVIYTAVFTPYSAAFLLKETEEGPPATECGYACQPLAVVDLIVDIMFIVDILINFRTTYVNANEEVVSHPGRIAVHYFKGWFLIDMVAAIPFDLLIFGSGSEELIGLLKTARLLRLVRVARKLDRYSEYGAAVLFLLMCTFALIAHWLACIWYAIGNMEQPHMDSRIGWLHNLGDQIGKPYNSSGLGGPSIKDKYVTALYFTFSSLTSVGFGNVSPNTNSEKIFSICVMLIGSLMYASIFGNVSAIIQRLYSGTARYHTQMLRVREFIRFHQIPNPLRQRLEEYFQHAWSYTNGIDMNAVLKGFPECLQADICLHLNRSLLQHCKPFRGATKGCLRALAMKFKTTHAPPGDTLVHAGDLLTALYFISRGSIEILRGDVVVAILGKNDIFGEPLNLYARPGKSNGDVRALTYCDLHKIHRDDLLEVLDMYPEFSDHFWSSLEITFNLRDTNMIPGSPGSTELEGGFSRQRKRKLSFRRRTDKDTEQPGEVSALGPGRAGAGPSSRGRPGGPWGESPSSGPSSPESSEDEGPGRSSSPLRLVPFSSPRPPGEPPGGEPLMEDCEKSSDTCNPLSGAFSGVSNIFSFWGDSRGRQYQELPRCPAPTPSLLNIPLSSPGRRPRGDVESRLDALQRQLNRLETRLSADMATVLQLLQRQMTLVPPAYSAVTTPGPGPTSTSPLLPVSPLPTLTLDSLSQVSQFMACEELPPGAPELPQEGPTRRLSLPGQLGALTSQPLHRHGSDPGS

`COc1ccc(CCN2CCC(Nc3nc4ccccc4n3Cc3ccc(F)cc3)CC2)cc1` [AST, astemizole, reference compound] gave an inhibition at 1 µM [1] of 5%, an inhibition at 5 µM [1] of 61% and an inhibition at 1 µM [2] of 0%. The inhibition at 5 µM [2] was 11%, the inhibition at 1 µM ([3]; read-out: Late gametocytes (LG) % activity, 1.0 µM) was 13% and the inhibition at 5 µM ([3]; read-out: Late gametocytes (LG) % activity, 5.0 µM) was 52%.

In the case of `CCN(CC)CCCC(C)Nc1ccnc2cc(Cl)ccc12` (stereo not drawn) [CQ, chloroquine], the “MSD (mean survival days)” value (P. berghei) is reported as 24 days.

With `FC1CN(CCc2ccc(-c3noc(C(F)(F)F)n3)cc2)CCC1Nc1nc2ccccc2[nH]1` (stereo not drawn) [Compound 7] the solubility at 2 h ([4]; PBS buffer) was 120 µM (≈ 56.9 µg/mL), the IC50 at 4 min (hERG K+ channel; pH 7.4, QPatch, CHO K1 cells expressing hERG) was 980 nM and the selectivity ratio at 4 min (hERG K+ channel; pH 7.4, read-out: hERG SI (selectivity index = hERG IC50/PfNF54 IC50)) was 4.47. For the same molecule, the inhibition at 1 µM [1] was 0%, the inhibition at 5 µM [1] was 27.6 ± 0.8% and the IC50 ([1]; NF54, read-out: gametocytes IC50, immature-stage (PfiGc / PfEG)) was 8160 nM. For the same molecule, the inhibition at 1 µM [2] was 10.9 ± 2.3%, the inhibition at 5 µM [2] was 37.8 ± 0.5% and the IC50 ([2]; NF54, read-out: gametocytes IC50, late-stage (PfLGc / PfLG)) was 8000 nM.

For `F[C@H]1CN(CCc2ccc(-c3noc(C(F)(F)F)n3)cc2)CC[C@@H]1Nc1nc2ccccc2[nH]1` [Compound 8], the “fold improvement of antiplasmodium activity over 7” value ([5]; PfNF54) was 1.5 fold, the IC50 ([5]; Plasmodium falciparum, NF54, read-out: PfIC50 NF54, sensitive NF54 strain) was 140 to 650 nM and the IC50 ([5]; read-out: PfIC50 NF54, sensitive NF54 strain) was 147 nM. The solubility at 2 h [4] was 100 µM (≈ 47.4 µg/mL), the “RI (resistance index = PfK1 IC50/PfNF54 IC50)” value [6] was 2.61 and the IC50 ([6]; Plasmodium falciparum, K1, read-out: PfIC50 K1) was 384 nM.

With `CN(C)c1ccc2nc3ccc(N(C)C)cc3[s+]c2c1` [methylene blue, reference compound] the IC50 ([1]; NF54, read-out: gametocytes IC50, immature-stage (PfiGc / PfEG), stages I–III, n = 1, technical triplicate) was 200 nM.

For `COC(=O)[C@H]1[C@H]2C[C@@H]3c4[nH]c5cc(OC)ccc5c4CCN3C[C@H]2C[C@@H](OC(=O)c2cc(OC)c(OC)c(OC)c2)[C@@H]1OC` [reserpine, reference compound], the solubility at 2 h [4] was < 10 µM.
